From patent US20260250257A1, “ANTIBACTERIAL AND SYNERGISTIC ACTIVE COMPOUND AND USE THEREOF” (EAST CHINA UNIVERSITY OF SCIENCE AND TECHNOLOGY, priority 2023, published 2026)
≈ marks a conversion by molar mass, not a printed value.

Each compound was assayed on ATCC13883 strain (Klebsiella pneumoniae) (assay: Checkerboard antibacterial synergistic activity test with polymyxin E (FIC)). Conditions: combined with polymyxin E.
Type: cell-based
Parameters: key: FIC≤0.5 synergy; 0.5–1 additive; 1–2 indifferent; ≥2 antagonism
In short: (§1)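 Polymyxin E was diluted in MH broth to 16–0.015 μg/ml and the test compound to 256–4 μg/ml (two-fold series, pre-mixing concentrations), combined checkerboard-style in 96-well plates with bacterial suspension and blank controls, and incubated at 37° C. for 16 h. FIC ≤0.5 was scored synergistic, >0.5 to <1 additive, 1–2 indifferent, ≥2 antagonistic.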

Row | SMILES | Synergistic activity (FIC value) ATCC13883
1 | CSc1cc2cc(C)ccn2c1-c1coc(N=C2NCCCN2)n1 [Compound I-192] | 0.38
2 | Cc1ccc2cccc(-c3nc(N=C(N)N)oc3C)c2c1 [Compound I-58] | 0.25
3 | NC(N)=Nc1nc(-c2ccc3cccnc3c2)cs1 [Compound I-68] | 1.25
4 | NC(N)=Nc1nc(-c2c(Cl)cc(Cl)cc2Cl)c[nH]1 [Compound I-52] | 0.25
5 | Cc1sc(N=C2NCCCN2)nc1-c1cc(I)cc(I)c1 [Compound I-182] | 0.31
6 | CC(C)=CCOc1ccccc1-c1csc(N=C(N)N)n1 [Compound I-46] | 0.25
7 | CSc1ccccc1-c1csc(N=C(N)N)n1 [Compound I-26] | 1.25
8 | O=[N+]([O-])c1ccc(Oc2ccc(I)cc2I)cc1-c1c[se]c(N=C2NCCCN2)n1 [Compound I-158] | 0.16
9 | NC(N)=Nc1nc(-c2cccc(NS(=O)(=O)c3ccccc3)c2)cs1 [Compound I-111] | 0.25

Each compound was assayed on ATCC19606 strain (Acinetobacter baumannii) in the same assay as above. Conditions: combined with polymyxin E.
Type: cell-based
Parameters: key: FIC≤0.5 synergy; 0.5–1 additive; 1–2 indifferent; ≥2 antagonism
In short: as §1

Row | SMILES | Synergistic activity (FIC value) ATCC19606
10 | CSc1cc2cc(C)ccn2c1-c1coc(N=C2NCCCN2)n1 [Compound I-192] | 0.5
11 | Cc1ccc2cccc(-c3nc(N=C(N)N)oc3C)c2c1 [Compound I-58] | 0.28
12 | NC(N)=Nc1nc(-c2ccc3cccnc3c2)cs1 [Compound I-68] | 0.51
13 | NC(N)=Nc1nc(-c2c(Cl)cc(Cl)cc2Cl)c[nH]1 [Compound I-52] | 0.3
14 | Cc1sc(N=C2NCCCN2)nc1-c1cc(I)cc(I)c1 [Compound I-182] | 0.25
15 | CC(C)=CCOc1ccccc1-c1csc(N=C(N)N)n1 [Compound I-46] | 0.31
16 | CSc1ccccc1-c1csc(N=C(N)N)n1 [Compound I-26] | 0.5
17 | O=[N+]([O-])c1ccc(Oc2ccc(I)cc2I)cc1-c1c[se]c(N=C2NCCCN2)n1 [Compound I-158] | 0.03
18 | NC(N)=Nc1nc(-c2cccc(NS(=O)(=O)c3ccccc3)c2)cs1 [Compound I-111] | 0.5

The compounds below were run on ATCC25922 strain (Escherichia coli) in the same assay as above. Conditions: combined with polymyxin E.
Type: cell-based
Parameters: key: FIC≤0.5 synergy; 0.5–1 additive; 1–2 indifferent; ≥2 antagonism
In short: as §1

Row | SMILES | Synergistic activity (FIC value) ATCC25922
19 | CSc1cc2cc(C)ccn2c1-c1coc(N=C2NCCCN2)n1 [Compound I-192] | 0.38
20 | Cc1ccc2cccc(-c3nc(N=C(N)N)oc3C)c2c1 [Compound I-58] | 0.5
21 | NC(N)=Nc1nc(-c2ccc3cccnc3c2)cs1 [Compound I-68] | 1.25
22 | NC(N)=Nc1nc(-c2c(Cl)cc(Cl)cc2Cl)c[nH]1 [Compound I-52] | 0.5
23 | Cc1sc(N=C2NCCCN2)nc1-c1cc(I)cc(I)c1 [Compound I-182] | 0.56
24 | CC(C)=CCOc1ccccc1-c1csc(N=C(N)N)n1 [Compound I-46] | 0.27
25 | CSc1ccccc1-c1csc(N=C(N)N)n1 [Compound I-26] | 0.63
26 | O=[N+]([O-])c1ccc(Oc2ccc(I)cc2I)cc1-c1c[se]c(N=C2NCCCN2)n1 [Compound I-158] | 0.18
27 | NC(N)=Nc1nc(-c2cccc(NS(=O)(=O)c3ccccc3)c2)cs1 [Compound I-111] | 0.63

Each compound was assayed on ATCC9027 strain (Pseudomonas aeruginosa) in the same assay as above. Conditions: combined with polymyxin E.
Type: cell-based
Parameters: key: FIC≤0.5 synergy; 0.5–1 additive; 1–2 indifferent; ≥2 antagonism
In short: as §1

Row | SMILES | Synergistic activity (FIC value) ATCC9027
28 | CSc1cc2cc(C)ccn2c1-c1coc(N=C2NCCCN2)n1 [Compound I-192] | 0.63
29 | Cc1ccc2cccc(-c3nc(N=C(N)N)oc3C)c2c1 [Compound I-58] | 0.63
30 | NC(N)=Nc1nc(-c2ccc3cccnc3c2)cs1 [Compound I-68] | 1.25
31 | NC(N)=Nc1nc(-c2c(Cl)cc(Cl)cc2Cl)c[nH]1 [Compound I-52] | 0.63
32 | Cc1sc(N=C2NCCCN2)nc1-c1cc(I)cc(I)c1 [Compound I-182] | 0.5
33 | CC(C)=CCOc1ccccc1-c1csc(N=C(N)N)n1 [Compound I-46] | 0.52
34 | CSc1ccccc1-c1csc(N=C(N)N)n1 [Compound I-26] | 1.25
35 | O=[N+]([O-])c1ccc(Oc2ccc(I)cc2I)cc1-c1c[se]c(N=C2NCCCN2)n1 [Compound I-158] | 0.28
36 | NC(N)=Nc1nc(-c2cccc(NS(=O)(=O)c3ccccc3)c2)cs1 [Compound I-111] | 1.25

These compounds were tested on ATCC13883 strain (Klebsiella pneumoniae) (assay: Broth microdilution, antibacterial activity of the compound used alone). Conditions: not given.
Type: cell-based
Source text: (§2) The broth microdilution method was used to test the antibacterial effects of the compounds of the present invention against various Gram-negative bacterial strains when used alone.

Row | SMILES | Antibacterial activity of the compound of Formula I, ATCC13883 [µg/mL]
37 | CSc1cc2cc(C)ccn2c1-c1coc(N=C2NCCCN2)n1 [Compound I-192] | 256
38 | Cc1ccc2cccc(-c3nc(N=C(N)N)oc3C)c2c1 [Compound I-58] | 256
39 | NC(N)=Nc1nc(-c2ccc3cccnc3c2)cs1 [Compound I-68] | 256
40 | NC(N)=Nc1nc(-c2c(Cl)cc(Cl)cc2Cl)c[nH]1 [Compound I-52] | 256
41 | Cc1sc(N=C2NCCCN2)nc1-c1cc(I)cc(I)c1 [Compound I-182] | 256
42 | CC(C)=CCOc1ccccc1-c1csc(N=C(N)N)n1 [Compound I-46] | 256
43 | CSc1ccccc1-c1csc(N=C(N)N)n1 [Compound I-26] | 256
44 | O=[N+]([O-])c1ccc(Oc2ccc(I)cc2I)cc1-c1c[se]c(N=C2NCCCN2)n1 [Compound I-158] | 256

Same assay, conditions: read-out: Antibacterial activity of the compound of Formula I, ATCC13883

Row | MIC [µg/mL] | SMILES
45 | 256 (≈ 685 µM) | NC(N)=Nc1nc(-c2cccc(NS(=O)(=O)c3ccccc3)c2)cs1 [Compound I-111]

These compounds were tested on ATCC19606 strain (Acinetobacter baumannii) in the same assay as above. Conditions: not given.
Type: cell-based
Source text: as §2

Row | SMILES | Antibacterial activity of the compound of Formula I, ATCC19606 [µg/mL]
46 | CSc1cc2cc(C)ccn2c1-c1coc(N=C2NCCCN2)n1 [Compound I-192] | 256
47 | Cc1ccc2cccc(-c3nc(N=C(N)N)oc3C)c2c1 [Compound I-58] | 256
48 | NC(N)=Nc1nc(-c2ccc3cccnc3c2)cs1 [Compound I-68] | 256
49 | NC(N)=Nc1nc(-c2c(Cl)cc(Cl)cc2Cl)c[nH]1 [Compound I-52] | 256
50 | Cc1sc(N=C2NCCCN2)nc1-c1cc(I)cc(I)c1 [Compound I-182] | 256
51 | CC(C)=CCOc1ccccc1-c1csc(N=C(N)N)n1 [Compound I-46] | 256
52 | CSc1ccccc1-c1csc(N=C(N)N)n1 [Compound I-26] | 256
53 | O=[N+]([O-])c1ccc(Oc2ccc(I)cc2I)cc1-c1c[se]c(N=C2NCCCN2)n1 [Compound I-158] | 256

Same assay, conditions: read-out: Antibacterial activity of the compound of Formula I, ATCC19606

Row | MIC [µg/mL] | SMILES
54 | 256 (≈ 685 µM) | NC(N)=Nc1nc(-c2cccc(NS(=O)(=O)c3ccccc3)c2)cs1 [Compound I-111]

The compounds below were run on ATCC25922 strain (Escherichia coli) in the same assay as above. Conditions: not given.
Type: cell-based
Source text: as §2

Row | SMILES | Antibacterial activity of the compound of Formula I, ATCC25922 [µg/mL]
55 | CSc1cc2cc(C)ccn2c1-c1coc(N=C2NCCCN2)n1 [Compound I-192] | 256
56 | Cc1ccc2cccc(-c3nc(N=C(N)N)oc3C)c2c1 [Compound I-58] | 256
57 | NC(N)=Nc1nc(-c2ccc3cccnc3c2)cs1 [Compound I-68] | 256
58 | NC(N)=Nc1nc(-c2c(Cl)cc(Cl)cc2Cl)c[nH]1 [Compound I-52] | 256
59 | Cc1sc(N=C2NCCCN2)nc1-c1cc(I)cc(I)c1 [Compound I-182] | 256
60 | CC(C)=CCOc1ccccc1-c1csc(N=C(N)N)n1 [Compound I-46] | 256
61 | CSc1ccccc1-c1csc(N=C(N)N)n1 [Compound I-26] | 256
62 | O=[N+]([O-])c1ccc(Oc2ccc(I)cc2I)cc1-c1c[se]c(N=C2NCCCN2)n1 [Compound I-158] | 256

Same assay, conditions: read-out: Antibacterial activity of the compound of Formula I, ATCC25922

Row | MIC [µg/mL] | SMILES
63 | 256 (≈ 685 µM) | NC(N)=Nc1nc(-c2cccc(NS(=O)(=O)c3ccccc3)c2)cs1 [Compound I-111]

The compounds below were run on ATCC9027 strain (Pseudomonas aeruginosa) in the same assay as above. Conditions: not given.
Type: cell-based
Source text: as §2

Row | SMILES | Antibacterial activity of the compound of Formula I, ATCC9027 [µg/mL]
64 | CSc1cc2cc(C)ccn2c1-c1coc(N=C2NCCCN2)n1 [Compound I-192] | 256
65 | Cc1ccc2cccc(-c3nc(N=C(N)N)oc3C)c2c1 [Compound I-58] | 256
66 | NC(N)=Nc1nc(-c2ccc3cccnc3c2)cs1 [Compound I-68] | 256
67 | NC(N)=Nc1nc(-c2c(Cl)cc(Cl)cc2Cl)c[nH]1 [Compound I-52] | 256
68 | Cc1sc(N=C2NCCCN2)nc1-c1cc(I)cc(I)c1 [Compound I-182] | 256
69 | CC(C)=CCOc1ccccc1-c1csc(N=C(N)N)n1 [Compound I-46] | 256
70 | CSc1ccccc1-c1csc(N=C(N)N)n1 [Compound I-26] | 256
71 | O=[N+]([O-])c1ccc(Oc2ccc(I)cc2I)cc1-c1c[se]c(N=C2NCCCN2)n1 [Compound I-158] | 256

Same assay, conditions: read-out: Antibacterial activity of the compound of Formula I, ATCC9027

Row | MIC [µg/mL] | SMILES
72 | 256 (≈ 685 µM) | NC(N)=Nc1nc(-c2cccc(NS(=O)(=O)c3ccccc3)c2)cs1 [Compound I-111]
